From US6897213B1, “Heterocycles as cholecystokinin (CCK) ligands” (Warner-Lambert Company, priority 1995, dated 2005)

Columns and labels:
CCK-A receptor = target: T1, CCK-A receptor (Homo sapiens, UniProt P32238); assay: CCK-A receptor binding affinity
T1 sequence (P32238 1-428): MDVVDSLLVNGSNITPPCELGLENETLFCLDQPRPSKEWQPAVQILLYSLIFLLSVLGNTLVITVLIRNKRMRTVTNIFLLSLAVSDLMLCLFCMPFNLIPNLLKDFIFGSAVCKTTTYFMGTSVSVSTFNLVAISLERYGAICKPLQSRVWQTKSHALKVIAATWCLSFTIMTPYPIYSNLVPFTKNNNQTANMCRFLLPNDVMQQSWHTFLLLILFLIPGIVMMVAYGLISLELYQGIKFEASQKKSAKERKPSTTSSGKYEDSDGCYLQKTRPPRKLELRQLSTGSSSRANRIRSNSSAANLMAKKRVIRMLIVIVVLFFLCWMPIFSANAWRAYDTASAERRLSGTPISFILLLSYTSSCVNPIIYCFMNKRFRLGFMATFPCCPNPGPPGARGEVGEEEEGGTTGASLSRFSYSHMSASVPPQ
Description: (§1) The following table represents the CCK-A and CCK-B receptor binding affinities of the compounds.
(§2) The testing procedures are disclosed in Hays et al, Neuropeptides 1:53-62, 1980; and Satuer et al, Science 208:1155-1156, 1980.

CCK-B receptor = target: T2, CCK-B receptor (Mus musculus, UniProt P56481); assay: CCK-B receptor binding affinity (tritiated-pentagastrin displacement, mouse cerebral cortical membranes); conditions: 2 nM tritiated-pentagastrin, Ki by Cheng-Prusoff
T2 construct: from tissue; host or cells: mouse (male CFLP) cerebral cortex membranes
T2 sequence (P56481 1-453): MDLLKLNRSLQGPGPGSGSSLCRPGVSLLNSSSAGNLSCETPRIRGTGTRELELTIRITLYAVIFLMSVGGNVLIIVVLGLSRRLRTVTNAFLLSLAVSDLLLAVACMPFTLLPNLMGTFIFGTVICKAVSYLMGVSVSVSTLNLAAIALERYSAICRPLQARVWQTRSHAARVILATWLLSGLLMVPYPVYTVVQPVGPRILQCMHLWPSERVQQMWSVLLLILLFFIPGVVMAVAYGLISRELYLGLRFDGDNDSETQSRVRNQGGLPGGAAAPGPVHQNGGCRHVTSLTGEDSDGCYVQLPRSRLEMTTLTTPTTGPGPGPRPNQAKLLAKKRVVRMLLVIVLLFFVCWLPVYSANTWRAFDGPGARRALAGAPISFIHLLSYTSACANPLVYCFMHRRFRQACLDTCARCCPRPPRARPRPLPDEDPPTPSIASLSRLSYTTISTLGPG
Experimental: The biological activity of compounds of the present invention may be evaluated by employing an initial screening test which rapidly and accurately measures the binding of the tested compound to known CCK receptor sites. […] (See Hays et al, Neuropeptides 1:53-62, 1980; and Satuer et al, Science 208:1155-1156, 1980).
In this screening test, the cerebral cortices taken from male CFLP mice weighing between 30-40 g were dissected on ice, weighed, and homogenized in 10 volumes of 50 mM Tris-HCl buffer (pH 7.4 at 0-4° C.). The resulting suspension was centrifuged, the supernate was discarded, and the pellet was washed by resuspension in Tris-HCl buffer followed by recentrifugation. The final pellet was resuspended in 20 volumes of […] buffer (pH 7.2 at 23° C.) containing 130 mM NaCl, […], […], 1 […].
In saturation studies, cerebral cortical membranes were incubated at 23° C. for 120 minutes in a final volume of 500 μL of Hepes incubation buffer (pH 7.2) together with 0.2-20 nM tritiated—pentagastrin (Amersham International, England).
In the displacement experiments, membranes were incubated with a single concentration (2 nM) of ligand, together with increasing concentrations (10^11 to 10^14 M) of competitive test compound. In each case, the nonspecific binding was defined as that persisting in the presence of the unlabeled octapeptide CCK26-33 (10^−6M).
Following incubation, radioactivity bound to membranes was separated from that free in solution by rapid filtration through Whatman GF/B filters and washed three times with 4 mL of ice cold Tris-HCl buffer. Filters from samples incubated with tritiated-pentagastrin were placed in polyethylene vials with 4 mL of scintillation cocktail, and the radioactivity was estimated by liquid scintillation spectrometry (efficiency 47-52%).
The specific binding to CCK receptor sites was defined as the total bound tritiated-pentagastrin minus the amount of tritiated-pentagastrin bound in the presence of 10^−6 octapeptide, CCK26-33.
Saturation curves for specific tritiated-pentagastrin binding to mouse cortical membranes were analyzed by the methods of Scatchard (Ann. New York Acad. Sci. 51:660-672, 1949, and Hill (J. Physiol. 40:IV-VIII, 1910), to provide estimates for the maximum number of binding sites (Bmax) and the equilibrium dissociation constant (Ka).
In displacement experiments, inhibition curves were analyzed by either logit-log plots or the iterative curve fitting computer program ALLFIT (DeLean, Munson and Redbard, 1978) to provide estimates of the IC50 and nH (apparent Hill coefficient values).
The inhibition constant (Ki) of the test compound was then calculated according to the Cheng-Prusoff equation: [formula] where [L] is the concentration of radiolabel and Ka is the equilibrium dissociation constant.
The Ki values for several representative compounds of the present invention are present in Table I.
as §1, §2

SMILES | Ki (CCK-A receptor) [µM] | Ki (CCK-B receptor) [µM]
CC(C)Oc1cccc(-n2c(NNC(=O)Nc3cccc(C#N)c3)nc3ccccc3c2=O)c1 [No. 14, Hydrazinecarboxamide, N-(3-cyanohenyl)-2-[3,4-dihydro-3-[3-(1-methylethoxoy)phenyl]-4-oxo-2-quinazolinyl]-] | 5.39 | 0.0012
CN(C)c1cccc(-n2c(NNC(=O)Nc3cccc(C#N)c3)nc3ccccc3c2=O)c1 [No. 40] | 5.74 | 0.0181
CC(C)Oc1cccc(-n2c(NNC(=O)NC3CCCCC3)nc3ccccc3c2=O)c1 [No. 15, Hydrazinecarboxamide, N-(cyclohexyl)-2-[3,4-dihydro-3-[3-(1-methylethoxy)phenyl]-4-oxo-2-quinazolinyl]-] | 17.7 | 0.105

Molecules with a lower Ki (CCK-A receptor), results first:

Ki (CCK-A receptor) [µM] | Ki (CCK-B receptor) [µM] | SMILES
3.64 | 0.0129 | CC(C)Oc1cccc(-n2c(NNC(=O)Nc3ccc(Cl)cc3)nc3ccccc3c2=O)c1 [No. 13, Hydrazinecarboxamide, N-(4-Chlorophenyl)-2-[3,4-dihydro-3-[3-(1-methylethoxy)phenyl]-4-oxo-2-quinazolinyl]]
3.58 | 0.002 | CC(C)Oc1cccc(-n2c(NNC(=O)Nc3cccc(C(=O)OC(C)(C)C)c3)nc3ccccc3c2=O)c1 [No. 7]
3.43 | 0.016 | CC(C)Oc1cccc(-n2c(NNC(=O)Nc3ccc(Br)cc3)nc3ccccc3c2=O)c1 [No. 1, Hydrazinecarboxamide, N-(4-bromophenyl)-2-[3,4-dihydro-3-[3-(1-methylethoxy)-phenyl]-4-oxo-2-quinazolinyl]-]
1.76 | 0.0534 | CCOC(=O)c1cccc(NC(=O)NNc2nc3ccccc3c(=O)n2-c2ccc(Cl)c(Cl)c2)c1 [No. 21]
